Reference: patent publication US20080045535A1, “Prokineticin 2 receptor antagonists” (priority 2005, published 2008)
pIC50: −log10 of the molar value. Several values for one entry are separate records, joined by “and”; a condition that tells them apart may be missing. Identical values can stand only once.

Biological target: T1, HEK 293 GPR73 (prokineticin 1 receptor) expressing cells (Homo sapiens, UniProt Q8TCW9)
T1 construct: expressed in transfected cells; host or cells: HEK 293
Test: PK1 functional assay: screening for PK1 antagonists on the FLIPR (calcium fluorescence)
Assay type: cell-based
Conditions: HEK 293 GPR73 cells; for inhibition at 10 µM: HEK293, compound at 10 μM, read-out: Ca^2+ Mobilization % Inh @10 μM; for inhibition at 10 µM / Ca^2+ Mobilization % Inh @10 μM: multiple values = repeat tests; for pIC50: PK1 ligand at EC50, multiple values = repeat tests, read-out: Ca^2+ Mobilization IC50; for Ca^2+ Mobilization % Inh @10 μM: compound at 10 μM
Protocol: At a time of 24 h prior to running the assay, in cell culture media (DMEM containing high Glucose and L-glutamine, 10% FBS, 1% Pen/Streptomycin, 1% Sodium Pyruvate, 20 mM HEPES, Zeocin 200 mg/L), 100 μL of 1.3*10^6/ml HEK 293 GPR73 (prokineticin 1 receptor) expressing cells were plated in a 96 well poly-d-lysine coated plate (Costar), and incubated at 37 C and 5% CO2. On the day in which the assay was run, the media was removed and 200 μL of 5× Calcium Plus Dye (Molecular Devices) which was previously resuspended with 200 mL of assay buffer [HBSS w/Ca^2+ and Mg^2+ w/o phenol red, 20 mM HEPES, 0.1% BSA, 10 mL probenecid (710 mg probenecid in 5 mL of 1N NaOH, to which was then added 5 mL HBSS containing 20 mM HEPES)] was added to each well of the 96-well plate. The plate was incubated at 37 C and 5% CO2 for 30 min in dark. The plate was removed and allowed to reach RT for 15 min in the dark. The assay was then run on the FLIPR. […] Baseline is described as the amount of relative fluorescence read when buffer alone is added to cells. Baseline was subtracted from all wells. Percent of control was calculated as follows:
(Baseline subtracted well value is divided by baseline subtracted max value)*100.
Percent inhibition is 100 minus the percent of control value.
IC50 values were calculated using GraphPad Prism.
Table 2 includes data generated from the PK1 functional assay described in Example 2.

T1 sequence (Q8TCW9 whole entry): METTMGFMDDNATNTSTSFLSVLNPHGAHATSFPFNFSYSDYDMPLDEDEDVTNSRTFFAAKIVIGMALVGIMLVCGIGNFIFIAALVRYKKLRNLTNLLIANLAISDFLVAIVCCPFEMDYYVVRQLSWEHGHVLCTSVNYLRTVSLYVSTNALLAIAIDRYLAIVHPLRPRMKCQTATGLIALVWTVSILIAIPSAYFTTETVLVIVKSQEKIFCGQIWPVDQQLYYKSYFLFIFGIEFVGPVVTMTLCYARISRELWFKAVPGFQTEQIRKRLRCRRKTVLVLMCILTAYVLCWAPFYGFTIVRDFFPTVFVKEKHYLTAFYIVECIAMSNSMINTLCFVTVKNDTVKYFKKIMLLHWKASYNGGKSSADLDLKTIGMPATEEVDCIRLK

| SMILES | inhibition at 10 µM [%] | pIC50 | Ca^2+ Mobilization % Inh @10 μM (10 µM) | Ca^2+ Mobilization % Inh @10 μM [%] |
| --- | --- | --- | --- | --- |
| COc1ccc(Cn2c(NCC(C)(C)NC(=N)N)nc(=O)n(Cc3ccc(Cl)c(Cl)c3)c2=O)cc1 [Cpd 102] | 68 | 5.46 |  |  |
| COc1ccc(Cn2c(NCCN(C(=N)N)c3ccccn3)nc(=O)n(Cc3ccc(F)cc3)c2=O)cc1 [Cpd 104, N-{2-[5-(4-Fluoro-benzyl)-1-(4-methoxy-benzyl)-4,6-dioxo-1,4,5,6-tetrahydro-[1,3,5]triazin-2-ylamino]-ethyl}-N-pyridin-2-yl-guanidine] |  | 7.96 | 99% and 102% |  |
| CCCCCCCCCCNC(=N)NCCNc1nc(=O)n(Cc2ccc(F)cc2)c(=O)n1Cc1ccc(OC)cc1 [Cpd 108] | 89 | 6.43 |  |  |
| COc1ccc(Cn2c(NCCNC(=N)N)nc(=O)n(Cc3ccc(OC(C)(C)C)cc3)c2=O)cc1 [Cpd 109] |  | 6.89 |  | 99 |
| COc1ccc(Cn2c(NCCNC(=N)N)nc(=O)n(Cc3ccc(O)cc3)c2=O)cc1 [Cpd 110, N-{2-[5-(4-Hydroxy-benzyl)-1-(4-methoxy-benzyl)-4,6-dioxo-1,4,5,6-tetrahydro-[1,3,5]triazin-2-ylamino]-ethyl}-guanidine] | 81 | 5.94 |  |  |
| COc1ccc(Cn2c(NCCNC(=N)N)nc(=O)n(Cc3csc(Cl)n3)c2=O)cc1 [Cpd 111] | 100 | 6.81 |  |  |
| COc1ccc(Cn2c(NCCNC(=N)N)nc(=O)n(Cc3cc4ccccc4o3)c2=O)cc1 [Cpd 112] | 101 | 7.59 |  |  |
| COc1ccc(Cn2c(NCCN(C)C(=N)N)nc(=O)n(Cc3ccc(Cl)c(Cl)c3)c2=O)cc1 [Cpd 113] | 101 | 7.96 and 7.62 and 7.34 and 7.12 | 100% and 102% |  |
| COc1ccc(Cn2c(NCCNC(=N)NCC(F)(F)F)nc(=O)n(Cc3ccc(F)cc3)c2=O)cc1 [Cpd 114] | 99 | 7.39 |  |  |
| COc1ccc(Cn2c(NCCNC(=N)N3CCCCC3)nc(=O)n(Cc3ccc(F)cc3)c2=O)cc1 [Cpd 116] | 99 | 7.24 |  |  |
| COc1ccc(Cn2c(NCCN(C(=N)N)c3ccccc3F)nc(=O)n(Cc3ccc(F)cc3)c2=O)cc1 [Cpd 118, N-{2-[5-(4-Fluoro-benzyl)-1-(4-methoxy-benzyl)-4,6-dioxo-1,4,5,6-tetrahydro-[1,3,5]triazin-2-ylamino]-ethyl}-N-(2-fluoro-phenyl)-guanidine] |  | 8.22 | 98% and 102% |  |
| N=C(N)NCCNc1nc(=O)n(Cc2ccc(Cl)cc2)c(=O)n1Cc1ccc(N)cc1 [Cpd 122, N-{2-[1-(4-Amino-benzyl)-5-(4-chloro-benzyl)-4,6-dioxo-1,4,5,6-tetrahydro-[1,3,5]triazin-2-ylamino]-ethyl}-guanidine] | 78 | 5.97 |  |  |
| COc1ccc(Cn2c(NCCNC(=N)N)nc(=O)n(CC(C)(C)C)c2=O)cc1 [Cpd 123] | 34 | < 5.00 |  |  |
| COc1ccc(Cn2c(NCCNC(=N)N)nc(=O)n(CC3CCCC3)c2=O)cc1 [Cpd 124] | 74 | 5.81 |  |  |
| COc1ccc(Cn2c(NCCNC(=N)N)nc(=O)n(Cc3ccc(N)cc3)c2=O)cc1 [Cpd 125, N-{2-[5-(4-Amino-benzyl)-1-(4-methoxy-benzyl)-4,6-dioxo-1,4,5,6-tetrahydro-[1,3,5]triazin-2-ylamino]-ethyl}-guanidine] | 83 | 6.31 |  |  |
| COc1ccc(Cn2c(NCCNC(=N)NC3C4CC5CC(C4)CC3C5)nc(=O)n(Cc3ccc(F)cc3)c2=O)cc1 (stereo not shown) [Cpd 126] | 95 | 6.94 |  |  |
| NC(N)=NCCNc1nc(=O)n(Cc2ccc(Cl)cc2)c(=O)n1Cc1ccccc1 [Cpd 129] | 64 | 5.32 |  |  |
| N=C(N)NCCNc1nc(=O)n(Cc2ccc(Cl)cc2)c(=O)n1Cc1ccoc1 [Cpd 130] | 71 | 5.73 |  |  |
| COc1ccc(Cn2c(NC3CCC(NC(=N)N)CC3)nc(=O)n(Cc3ccc(F)cc3)c2=O)cc1 (stereo not shown) [Cpd 131] |  | < 5.00 |  | 32 |
| COc1ccc(Cn2c(NCC(=O)NC(=N)NC(=O)OC(C)(C)C)nc(=O)n(Cc3ccc(F)cc3)c2=O)cc1 [Cpd 132, N-{2-[5-(4-fluoro-benzyl)-1-(4-methoxy-benzyl)-4,6-dioxo-1,4,5,6-tetrahydro-[1,3,5]triazin-2-ylamino]-acetyl}-N′-boc-guanidine] | 54 | 5.07 |  |  |

Results, then the molecule that gave them:

| inhibition at 10 µM [%] | pIC50 | Ca^2+ Mobilization % Inh @10 μM (10 µM) | Ca^2+ Mobilization % Inh @10 μM [%] | SMILES |
| --- | --- | --- | --- | --- |
| 33 | < 5.00 |  |  | COc1ccc(Cn2c(NCCNC(=N)N)nc(=O)n(Cc3ccc(C(=O)O)cc3)c2=O)cc1 [Cpd 101, 4-[4-(2-Guanidino-ethylamino)-3-(4-methoxy-benzyl)-2,6-dioxo-3,6-dihydro-2H-[1,3,5]triazin-1-ylmethyl]-benzoic acid] |
| 99 | 7.64 |  |  | COc1ccc(Cn2c(NCCNC(=N)Nc3ccc(Br)cc3)nc(=O)n(Cc3ccc(F)cc3)c2=O)cc1 [Cpd 103] |
|  | 7.05 |  | 100 | COc1ccc(Cn2c(NCCNC(=N)NCCc3ccccn3)nc(=O)n(Cc3ccc(F)cc3)c2=O)cc1 [Cpd 105] |
| 89 | 6.29 |  |  | CCOC(=O)c1ccc(NC(=N)NCCNc2nc(=O)n(Cc3ccc(F)cc3)c(=O)n2Cc2ccc(OC)cc2)cc1 [Cpd 106] |
| 101 | 7.92 |  |  | COc1ccc(Cn2c(NCCNC(=N)Nc3ccc(F)cc3F)nc(=O)n(Cc3ccc(F)cc3)c2=O)cc1 [Cpd 107] |
| 99 | 7.33 |  |  | COCCCNC(=N)NCCNc1nc(=O)n(Cc2ccc(F)cc2)c(=O)n1Cc1ccc(OC)cc1 [Cpd 115] |
| 79 | 7.08 |  |  | COc1ccc(Cn2c(NCCNC(=N)N(C)c3ccccc3)nc(=O)n(Cc3ccc(F)cc3)c2=O)cc1 [Cpd 117] |
| 102 | 8.22 and 7.92 | 99% |  | COc1ccc(Cn2c(NCCNC(=N)Nc3ccc(F)cc3)nc(=O)n(Cc3ccc(F)cc3)c2=O)cc1 [Cpd 119, N-{2-[5-(4-Fluoro-benzyl)-1-(4-methoxy-benzyl)-4,6-dioxo-1,4,5,6-tetrahydro-[1,3,5]triazin-2-ylamino]-ethyl}-N′-(4-fluoro-phenyl)-guanidine] |
| 100 | 8.05 and 7.82 | 102% |  | COc1ccc(Cn2c(NCCNC(=N)Nc3ccc(C)cc3)nc(=O)n(Cc3ccc(F)cc3)c2=O)cc1 [Cpd 120] |
| 101 | 7.70 and 7.48 | 98% |  | COc1ccc(Cn2c(NCCNC(=N)NC(C)(C)C)nc(=O)n(Cc3ccc(F)cc3)c2=O)cc1 [Cpd 121] |
| 100 | 7.24 |  |  | COc1ccc(Cn2c(NCCNC(=N)Nc3ccc(OC(F)(F)F)cc3)nc(=O)n(Cc3ccc(F)cc3)c2=O)cc1 [Cpd 127] |
| 100 | 7.40 |  |  | COc1ccc(Cn2c(NCCNC(=N)Nc3ccc(O)cc3)nc(=O)n(Cc3ccc(F)cc3)c2=O)cc1 [Cpd 128] |
| 93 | 6.70 |  |  | COc1ccc(Cn2c(NCCNC(=N)Nc3ccccc3SC)nc(=O)n(Cc3ccc(F)cc3)c2=O)cc1 [Cpd 133] |
